# Measurements: publication PMC9738591, “N-[1,3-Dialkyl(aryl)-2-oxoimidazolidin-4-ylidene]-aryl(alkyl)sulphonamides as Novel Selective Human Cannabinoid Type 2 Receptor (hCB2R) Ligands; Insights into the Mechanism of Receptor Activation/Deactivation” (Molecules, 2022)
# Read-outs that look alike come from different tables or passages of the source.
# Legend:
# [1] = target: T1, human recombinant CB1R (Homo sapiens, UniProt P21554); experiment: Competition binding assay, displacement of [3H]-CP-55,940 from membranes of HEK-293 cells overexpressing CB1R; conditions: for Ki: [3H]-CP-55,940 displacement, HEK-293 membranes, 90 min at 30 °C, Cheng-Prusoff, read-out: Ki hCB1R (µM ± S.E.); for inhibition at 10 µM: read-out: % Displacement/ Max. Conc. Tested, hCB1R
# T1 construct: purchased Perkin-Elmer, Italy; host or cells: HEK-293 cells (membranes)
# Experimental: (§1) The binding affinities (Ki values) of the compounds for human recombinant hCB1R and hCB2R were determined as previously described, using SR144528 as a reference compound [30], and are reported in Table 1.
# (§2) Compound affinity for CB1R and CB2R was measured as previously reported. […] Competition curves were performed by displacing [^3H]-CP-55 940 with increasing concentrations of compounds (0.1 nM–10 or 25 μM). […] All compounds were tested following the procedure described by the manufacturer (Perkin-Elmer, Italy). Displacement curves were generated by incubating drugs with [^3H]-CP-55 940 for 90 min at 30 °C. Ki values were calculated by applying the Cheng−Prusoff equation to the IC50 values for the displacement of the bound radioligand by increasing concentrations of the test compound. Data represent the mean values of three independent experiments performed in duplicate and are expressed as the average of Ki (µM) ± standard deviation. Data were analyzed using PRISM.9.3 software (GraphPad Software Inc, San Diego, CA, USA).
# [2] = target: human CB2R (Homo sapiens, UniProt P34972); experiment: Competition binding assay, displacement of [3H]-CP-55,940 from membranes of HEK-293 cells overexpressing CB2R; design: purchased Perkin-Elmer, Italy; host or cells: HEK-293 cells (membranes); conditions: for Ki: [3H]-CP-55,940 displacement, HEK-293 membranes, 90 min at 30 °C, Cheng-Prusoff, read-out: Ki hCB2R (µM ± S.E.)
# Experimental: as §1, §2
# [3] = max conc. tested 10 µM, read-out: % Displacement/ Max Conc. Tested, hCB2R (converted)
# human CB2R, sequence (P34972 whole entry): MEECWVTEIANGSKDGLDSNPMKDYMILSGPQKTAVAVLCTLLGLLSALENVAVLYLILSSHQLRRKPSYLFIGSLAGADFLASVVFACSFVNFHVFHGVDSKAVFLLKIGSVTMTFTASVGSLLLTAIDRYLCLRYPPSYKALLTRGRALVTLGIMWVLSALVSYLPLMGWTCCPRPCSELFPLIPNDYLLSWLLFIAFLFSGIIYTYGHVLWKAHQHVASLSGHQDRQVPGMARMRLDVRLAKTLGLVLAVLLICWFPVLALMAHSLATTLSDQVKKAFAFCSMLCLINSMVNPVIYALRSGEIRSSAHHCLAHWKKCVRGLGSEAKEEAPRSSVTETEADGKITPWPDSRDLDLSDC
# T1 sequence (P21554 whole entry): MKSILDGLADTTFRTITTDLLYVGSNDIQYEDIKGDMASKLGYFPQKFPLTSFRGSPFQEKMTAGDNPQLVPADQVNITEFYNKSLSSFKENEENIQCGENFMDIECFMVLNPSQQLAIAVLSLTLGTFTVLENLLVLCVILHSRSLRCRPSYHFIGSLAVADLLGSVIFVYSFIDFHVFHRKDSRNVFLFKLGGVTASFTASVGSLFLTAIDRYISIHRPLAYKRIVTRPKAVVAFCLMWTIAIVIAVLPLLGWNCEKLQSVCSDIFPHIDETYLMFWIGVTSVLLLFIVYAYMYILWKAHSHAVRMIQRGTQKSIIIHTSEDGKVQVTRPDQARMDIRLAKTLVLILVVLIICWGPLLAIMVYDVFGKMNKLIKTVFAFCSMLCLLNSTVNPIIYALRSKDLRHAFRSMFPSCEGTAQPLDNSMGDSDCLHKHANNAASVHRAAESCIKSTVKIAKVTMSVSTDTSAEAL
Compound,Ki [1] [µM],inhibition at 10 µM ([1]; max conc. tested 10 µM) [%],Ki [2] [µM],"inhibition at 10 µM [2, 3] [%]",inhibition at 10 µM [1] [%],melting point [°C],"inhibition at 10 µM ([2]; read-out: % Displacement/ Max Conc. Tested, hCB2R) [%]"
"CCN1CC(=NS(=O)(=O)c2ccc(Cl)cc2)N(CC)C1=O [Compound 4f, 4-Chloro-N-[1,3-diethyl-2-oxoimidazolidin-4-ylidene]benzenesulfonamide]",> 10,17.8,> 10,14.9,–,–,–
"CC(C)(C)N1CC(=NS(=O)(=O)c2ccc3ccccc3c2)N(c2ccccc2)C1=O [Compound 9h, N-[1-tert-Butyl-2-oxo-3-phenylimidazolidin-4-ylidene]naphthalene-2-sulfonamide]",> 10,–,> 10,35.6,8.35,–,–
"CN1CC(=NS(=O)(=O)c2ccc(Br)cc2)N(C)C1=O [Compound 4d, 4-Bromo-N-[1,3-dimethyl-2-oxoimidazolidin-4-ylidene]benzenesulfonamide]",> 10,14.9,> 10,10.7,–,–,–
"O=C1N(CC2CC2)/C(=N/S(=O)(=O)c2ccc3ccccc3c2)CN1C12CC3CC(CC(C3)C1)C2 [Compound 12h, N-[1-Adamant-1-yl-3-cyclopropylmethyl-2-oxoimidazolidin-4-ylidene]naphtalene-2-sulfonamide]",> 10,–,> 10,17.7,38.5,167 to 167.5,–
"Cc1cc(C)c(S(=O)(=O)N=C2CN(C(C)(C)C)C(=O)N2c2ccccc2)c(C)c1 [Compound 9f, N-[1-tert-Butyl-2-oxo-3-phenylimidazolidin-4-ylidene]-2,4,6-trimethylbenzenesulfonamide]",> 10,0,> 10,47.8,–,–,–
"CC(C)(C)N1CC(=NS(=O)(=O)c2ccc(Br)cc2)N(CC2CC2)C1=O [Compound 10d, 4-Bromo-N-[1-tert-Butyl-3-cyclopropylmethyl-2-oxoimidazolidin-4-ylidene]benzenesulfonamide]",> 10,–,0.83 ± 0.25,77.2,22.2,98 to 98.5,–
"O=C1N(CC2CC2)C(=NS(=O)(=O)c2ccc(Br)cc2)CN1C12CC3CC(CC(C3)C1)C2 [Compound 12d, N-[1-Adamant-1-yl-3-cyclopropylmethyl-2-oxoimidazolidin-4-ylidene]-4-bromo-1-benzenesulfonamide]",> 10,–,> 10,32.5,47.9,176 to 176.5,–
"CC(C)(C)N1CC(=NS(C)(=O)=O)N(CC2CC2)C1=O [Compound 10a, N-[1-tert-Butyl-3-cyclopropylmethyl-2-oxoimidazolidin-4-ylidene]methanesulfonamide]",> 10,–,> 10,13.4,16.3,83.5 to 84,–
"COCCN1C(=O)N(C(C)(C)C)CC1=NS(=O)(=O)c1cccc2ccccc12 [Compound 11g, N-[1-tert-Butyl-3-(2-methoxyethyl)-2-oxoimidazolidin-4-ylidene]naphthalene-1-sulfonamide]",> 10,–,1.66 ± 0.2,78.7,13.5,110.5 to 111,–
"CCN1CC(=NS(=O)(=O)c2ccccc2)N(CC)C1=O [Compound 4e, N-[1,3-Diethyl-2-oxoimidazolidin-4-ylidene]benzenesulfonamide]",> 10,22.7,> 10,7.72,–,–,–
"O=C1N(CC2CC2)/C(=N/S(=O)(=O)c2cccc3ccccc23)CN1C12CC3CC(CC(C3)C1)C2 [Compound 12g, N-[1-Adamant-1-yl-3-cyclopropylmethyl-2-oxoimidazolidin-4-ylidene]naphtalene-1-sulfonamide]",> 10,–,> 10,45.6,12.8,188.5 to 189,–
"Cc1ccc(S(=O)(=O)N=C2CN(C)C(=O)N2C)cc1 [Compound 4b, N-[1,3-Dimethyl-2-oxoimidazolidin-4-ylidene]-4-methylbenzenesulfonamide]",> 10,26.9,> 10,7.08,–,–,–
"CC(C)(C)N1CC(=NS(C)(=O)=O)N(c2ccccc2)C1=O [Compound 9a, N-[1-tert-Butyl-2-oxo-3-phenylimidazolidin-4-ylidene]-methanesulfonamide]",> 10,–,> 10,8.84,9.48,–,–
"CC(C)(C)N1CC(=NS(=O)(=O)c2cccc(Br)c2)N(c2ccccc2)C1=O [Compound 9e, 3-Bromo-N-[1-tert-butyl-2-oxo-3-phenylimidazolidin-4-ylidene]benzenesulfonamide]",> 10,4.64,> 10,24.1,–,–,–
"CN1CC(=NS(=O)(=O)c2ccc(Cl)cc2)N(C)C1=O [Compound 4c, 4-Chloro-N-[1,3-dimethyl-2-oxoimidazolidin-4-ylidene]benzenesulfonamide]",> 10,47.5,> 10,12.3,–,–,–
"Cc1ccc(S(=O)(=O)N=C2CN(C(C)(C)C)C(=O)N2CC(C)C)cc1 [Compound 14, N-[1-tert-Butyl-3-(2-methylpropyl)-2-oxoimidazolidin-4-ylidene]-4-methylbenzene-1-sulfonamide]",> 10,–,> 10,47.8,0.02,–,–
"CC(C)(C)N1C(=O)N(CC2CC2)CC1=NS(=O)(=O)c1ccccc1 [Compound 15, N-[3-tert-Butyl-1-(cyclopropylmethyl)-2-oxoimidazolidin-4-ylidene]benzenesulfonamide]",> 10,–,1.61 ± 0.16,73.9,0.01,–,–
"CC(C)(C)N1CC(=NS(=O)(=O)c2ccccc2)N(c2ccccc2)C1=O [Compound 9b, N-[1-tert-Butyl-2-oxo-3-phenylimidazolidin-4-ylidene]benzenesulfonamide]",> 10,–,> 10,22.6,12,–,–
"CCN1CC(=NS(=O)(=O)c2ccc(C)cc2)N(CC)C1=O [Compound 1, N-[1,3-Diethyl-2-oxoimidazolidin-4-ylidene]-4-methylbenzenesulfonamide]",> 10,8.78,> 10,7.7,–,–,–
"CC(C)(C)N1CC(=NS(=O)(=O)c2ccc(Br)cc2)N(c2ccccc2)C1=O [Compound 9d, 4-Bromo-N-[1-tert-butyl-2-oxo-3-phenylimidazolidin-4-ylidene]benzenesulfonamide]",–,17.4,> 10,–,–,–,53.5
"CN1CC(=NS(=O)(=O)c2ccccc2)N(C)C1=O [Compound 4a, N-[1,3-Dimethyl-2-oxoimidazolidin-4-ylidene]benzenesulfonamide]",> 10,32.8,> 10,6.19,–,–,–
"Cc1ccc(S(=O)(=O)N=C2CN(C(C)(C)C)C(=O)N2c2ccccc2)cc1 [Compound 9c, N-[1-tert-Butyl-2-oxo-3-phenylimidazolidin-4-ylidene]-4-methylbenzenesulfonamide]",> 10,–,> 10,5.39,7.22,–,–
"CC(C)(C)N1CC(=NS(=O)(=O)c2ccc3ccccc3c2)N(CC2CC2)C1=O [Compound 10h, N-[1-tert-Butyl-3-cyclopropylmethyl-2-oxoimidazolidin-4-ylidene]naphthalene-2-sulfonamide]",> 10,–,0.78 ± 0.17,72.3,8.18,–,–
"CCN1CC(=NS(=O)(=O)c2ccc(Br)cc2)N(CC)C1=O [Compound 4g, 4-Bromo-N-[1,3-diethyl-2-oxoimidazolidin-4-ylidene]benzenesulfonamide]",> 10,20.6,> 10,13.4,–,–,–
"CC(C)N1CC(=NS(=O)(=O)c2cccc3ccccc23)N(CC2CC2)C1=O [Compound 13, N-[3-(cyclopropylmethyl)-2-oxo-1-(propan-2-yl)imidazolidin-4-ylidene]naphthalene-1-sulfonamide]",> 10,–,0.8 ± 0.02,78.3,4.63,–,–
"CC(C)(C)N1CC(=NS(=O)(=O)c2cccc3ccccc23)N(c2ccccc2)C1=O [Compound 9g, N-[1-tert-Butyl-2-oxo-3-phenylimidazolidin-4-ylidene]naphthalene-1-sulfonamide]",> 10,–,> 10,11,14.8,–,–
